Data from patent US20130245355A1, “3-HETARYL-SUBSTITUTED PYRROLO[2,3 B]PYRIDINE DERIVATIVES AS PDK1 INHIBITORS” (MERCK PATENT GMBH, priority 2010, published 2013).

Tests used:
PDK1 [1] = target: T1, PDK1 (Homo sapiens, UniProt O15530); assay: Test for the inhibition of PDK1 (flashplate, 33P-ATP); conditions: His6-PDK1 (1-50) 3.4 nM, 4 μM ATP, 30° C., 60 min; read-out: IC50 [PDK1] biochemical
T1 construct: His6 (N)
T1 sequence (O15530 51-556 limits assumed): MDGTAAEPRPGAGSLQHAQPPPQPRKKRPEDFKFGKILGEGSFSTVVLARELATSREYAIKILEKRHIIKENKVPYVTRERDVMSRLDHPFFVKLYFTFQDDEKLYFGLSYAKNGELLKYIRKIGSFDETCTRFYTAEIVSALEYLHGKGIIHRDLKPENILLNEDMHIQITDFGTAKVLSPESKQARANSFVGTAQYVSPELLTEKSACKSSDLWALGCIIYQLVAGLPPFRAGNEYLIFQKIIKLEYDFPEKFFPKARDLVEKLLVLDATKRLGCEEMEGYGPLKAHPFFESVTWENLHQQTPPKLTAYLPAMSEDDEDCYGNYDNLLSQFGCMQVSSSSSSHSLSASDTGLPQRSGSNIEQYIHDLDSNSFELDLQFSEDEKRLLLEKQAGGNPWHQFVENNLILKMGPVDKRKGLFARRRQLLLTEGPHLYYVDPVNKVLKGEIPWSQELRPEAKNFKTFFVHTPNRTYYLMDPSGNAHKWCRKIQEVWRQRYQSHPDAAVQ
Description: The experimental batches are carried out in a flashplate system with 384 wells/microtitration plate.
In each case, the PDK1 sample His6-PDK1 (1-50) (3.4 nM), the PDK1 substrate biotin-bA-bA-[…] (400 nM), 4 μM ATP (with 0.2μ Ci of ^33P-ATP/well) and the test substance in 50 μl of conventional experimental solution per well are incubated at 30° C. for 60 min. The test substances are employed in corresponding concentrations (if desired in a dilution series). The control is carried out without test substance. The reaction is stopped using standard methods and washed. The activity of the kinase is measured via the incorporated radioactivity in top count. In order to determine the non-specific kinase reaction (blank value), the experimental batches are carried out in the presence of 100 nM staurosporin.
The radioactivity (decompositions per minute) of the blank value (no use of test substance in the presence of staurosporin) is subtracted from all other radioactivity values. The controls (kinase activity without test substance) are set equal to 100 percent and all other radioactivity values (after subtracting the blank value) are expressed set in relation thereto (for example in % of the control).
IC50 values (50% inhibition) are determined with the aid of statistics programmes, such as, for example, RS1.

PDK1 [2] = target: T2, PDK1 (Homo sapiens, UniProt O15530); assay: Cellular testing of PDK1 kinase inhibitors in PC3 cells (Luminex, phospho-T308-PKB); type: cell-based; conditions: 30 min, serum-free
T2 construct: endogenous in cells; host or cells: PC3 cells
T2 sequence (O15530 1-556): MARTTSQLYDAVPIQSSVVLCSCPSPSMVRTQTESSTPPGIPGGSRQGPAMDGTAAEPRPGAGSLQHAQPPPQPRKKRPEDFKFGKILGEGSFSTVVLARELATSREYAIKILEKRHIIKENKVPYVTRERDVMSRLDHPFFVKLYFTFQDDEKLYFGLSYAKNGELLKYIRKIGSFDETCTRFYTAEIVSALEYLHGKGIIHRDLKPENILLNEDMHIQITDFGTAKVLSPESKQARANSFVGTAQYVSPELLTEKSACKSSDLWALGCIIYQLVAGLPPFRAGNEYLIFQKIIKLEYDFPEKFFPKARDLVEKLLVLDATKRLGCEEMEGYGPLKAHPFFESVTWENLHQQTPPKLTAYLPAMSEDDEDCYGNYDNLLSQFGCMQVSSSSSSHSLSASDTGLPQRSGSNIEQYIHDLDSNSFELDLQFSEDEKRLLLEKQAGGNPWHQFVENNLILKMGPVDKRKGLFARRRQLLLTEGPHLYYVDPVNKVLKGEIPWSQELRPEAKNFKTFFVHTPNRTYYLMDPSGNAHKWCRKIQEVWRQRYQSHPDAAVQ
Description: Method for the Cellular Testing of PDK1 Kinase Inhibitors in PC3 Cells.
The cellular assay for the determination of the PDK1 kinase activity is carried out as a Luminex assay in the 96-well format. PC3 cells are sown at 20,000 cells per well in 100 μl of medium (45% of […]/45% of Ham's F12/10% of FCS) and incubated on the following day for 30 min with a serial dilution of the test substance (7 concentrations) under serum-free conditions. The cells are subsequently lysed using 90 μl of lysis buffer (20 mM tris/HCl pH 8.0, 150 mM NaCl, 1% of NP40, 10% of glycerol, 1% of phosphatase inhibitor I, 1% of phosphatase inhibitor II, 0.1% of protease inhibitor cocktail III, 0.01% of benzonase) per well, and the lysates are separated off from insoluble cell constituents by means of centrifugation through a 96-well filter plate (0.65 μm). The lysates are incubated overnight at 4° C. with shaking with Luminex beads to which an anti-total PKB antibody is coupled. The detection is carried out on the following day by addition of a phospho-T308-PKB antibody and a species-specific […] secondary antibody. The detection of phospho T308-PKB is carried out by measurement in a Luminex100 instrument by determination of 100 events per cavity in a measurement time of 60 sec. As pharmacological blank, the signals obtained from cells which have been treated with 10 μM staurosporin are subtracted from all other batches. The control value used for maximum phosphorylation of PKB on T308 are the signals from cells which have only been treated with the solvent (0.3% of DMSO). The values of the batches treated with test substance are calculated therefrom as percentage of control, and IC50 values are determined by means of RS 1.

Row | SMILES | IC50 (PDK1 [1]) [nM] | IC50 (PDK1 [2]) [nM]
1 | Cn1cc(-c2cnc3[nH]cc(-c4csc(Cc5ccccc5)n4)c3c2)cn1 [A2, 3-(2-benzyl-thiazol-4-yl)-5-(1-methyl-1H-pyrazol-4-yl)-1H-pyrrolo[2,3-b]pyridine] | – | 1000 to 10000
2 | Cc1sc(Cc2ccccc2)nc1-c1c[nH]c2ncc(-c3cnn(C)c3)cc12 [A3] | – | 1000 to 10000
3 | Cn1cc(-c2cnc3[nH]cc(-c4csc(Cc5cccc(F)c5)n4)c3c2)cn1 [A7] | – | 1000 to 10000
4 | Cn1cc(-c2cnc3[nH]cc(-c4noc(Cc5cccc(F)c5)n4)c3c2)cn1 [A8, 3-[5-(3-fluorobenzyl)-1,2,4-oxadiazol-3-yl]-5-(1-methyl-1H-pyrazol-4-yl)-1H-pyrrolo[2,3-b]pyridine] | 1000 to 10000 | –
5 | Cn1cc(-c2cnc3[nH]cc(-c4noc(Cc5ccccc5F)n4)c3c2)cn1 [A13] | 1000 to 10000 | –
6 | Cn1cc(-c2cnc3[nH]cc(-c4noc(Cc5ccccc5)n4)c3c2)cn1 [A26] | 1000 to 10000 | –
7 | Cn1cc(-c2cnc3[nH]cc(-c4noc(C(=O)c5ccccc5)n4)c3c2)cn1 [A27] | – | 1000 to 10000
8 | COC(C)(c1ccccc1)c1cc(-c2c[nH]c3ncc(-c4cnn(C)c4)cc23)nn1C (stereo not drawn) [A73] | 1000 to 10000 | –
9 | Cn1cc(-c2cnc3[nH]cc(-c4cc(C(C)(O)c5ccccc5)n(C)n4)c3c2)cn1 (stereo not drawn) [A76] | 1000 to 10000 | –
10 | Cn1cc(-c2cnc3[nH]cc(-c4cc(C(O)c5ccccc5)nn4CCO)c3c2)cn1 (stereo not drawn) [A106] | 1000 to 10000 | –
11 | CCC(N)(c1ccccc1)c1nnc(-c2c[nH]c3ncc(-c4cnn(C)c4)cc23)o1 (stereo not drawn) [A114] | 1000 to 10000 | –
12 | Cn1cc(-c2cnc3[nH]cc(-c4nnc(C(N)c5cccnc5)o4)c3c2)cn1 (stereo not drawn) [A115] | 1000 to 10000 | –
13 | Cn1cc(-c2cnc3[nH]cc(-c4nc(C5(c6ccccc6Cl)CC5)no4)c3c2)cn1 [A119] | – | 1000 to 10000
14 | Cn1cc(-c2cnc3[nH]cc(-c4nnc(C(C)(C)c5ccnnc5)o4)c3c2)cn1 [A121, 5-(1-methyl-1H-pyrazol-4-yl)-3-[5-(1-methyl-1-pyridazin-4-ylethyl)-1,3,4-oxadiazol-2-yl]-1H-pyrrolo[2,3-b]pyridine] | 1000 to 10000 | –
15 | Cn1cc(-c2cnc3[nH]cc(-c4nnc(C(O)c5ccc(C(=O)NC6CCCCC6)cc5Cl)o4)c3c2)cn1 (stereo not drawn) [A129, 3-chloro-N-cyclohexyl-4-(hydroxy-{5-[5-(1-methyl-1H-pyrazol-4-yl)-1H-pyrrolo[2,3-b]pyridin-3-yl]-1,3,4-oxadiazol-2-yl}methyl)benzamide] | – | 1000 to 10000

Continued, values first:

Row | IC50 (PDK1 [1]) [nM] | IC50 (PDK1 [2]) [nM] | SMILES
16 | 0.5 to 1000 | 0.5 to 1000 | Cn1cc(-c2cnc3[nH]cc(-c4nnc(C(O)c5ccccc5Cl)o4)c3c2)cn1 (racemic) [A58]
17 | 0.5 to 1000 | 0.5 to 1000 | Cn1cc(-c2cnc3[nH]cc(-c4cc([C@@](C)(O)c5ccccc5)on4)c3c2)cn1 (single isomer, unassigned) [A34]
18 | 0.5 to 1000 | 1000 to 10000 | Cn1cc(-c2cnc3[nH]cc(-c4cc([C@](C)(O)c5ccccc5)on4)c3c2)cn1 (single isomer, unassigned) [A35]
19 | 0.5 to 1000 | 0.5 to 1000 | Cn1cc(-c2cnc3[nH]cc(-c4cc([C@](C)(O)c5ccccc5F)on4)c3c2)cn1 (single isomer, unassigned) [A55]
20 | 0.5 to 1000 | – | Cn1cc(-c2cnc3[nH]cc(-c4cc([C@](C)(O)c5ccccc5F)on4)c3c2)cn1 (single isomer, unassigned) [A56]
21 | 0.5 to 1000 | 1000 to 10000 | Cn1cc(-c2cnc3[nH]cc(-c4cc([C@](C)(O)c5cccc(F)c5)on4)c3c2)cn1 (single isomer, unassigned) [A62]
22 | 0.5 to 1000 | 1000 to 10000 | Cn1cc(-c2cnc3[nH]cc(-c4cc([C@](C)(O)c5cccc(F)c5)on4)c3c2)cn1 (single isomer, unassigned) [A63]
23 | 0.5 to 1000 | – | CC[C@](O)(c1cc(-c2c[nH]c3ncc(-c4cnn(C)c4)cc23)no1)c1ccccc1F (single isomer, unassigned) [A92]
24 | 0.5 to 1000 | – | CC[C@@](O)(c1cc(-c2c[nH]c3ncc(-c4cnn(C)c4)cc23)no1)c1ccccc1F (single isomer, unassigned) [A93]
25 | 0.5 to 1000 | 0.5 to 1000 | Cn1cc(-c2cnc3[nH]cc(-c4nnc([C@@H](O)c5ccccc5Cl)o4)c3c2)cn1 (single isomer, unassigned) [A130]
26 | 0.5 to 1000 | – | Cn1cc(-c2cnc3[nH]cc(-c4nnc([C@H](O)c5ccccc5Cl)o4)c3c2)cn1 (single isomer, unassigned) [A131]
27 | 0.5 to 1000 | 0.5 to 1000 | Cn1cc(-c2cnc3[nH]cc(-c4cc(C(C)(O)c5ccccc5)on4)c3c2)cn1 (stereo not drawn) [A1, 1-{3-[5-(1-methyl-1H-pyrazol-4-yl)-1H-pyrrolo[2,3-b]pyridin-3-yl]isoxazol-5-yl}-1-phenylethanol]
28 | 0.5 to 1000 | – | Cn1cc(-c2cnc3[nH]cc(-c4n[nH]c(C(O)c5ccccc5)n4)c3c2)cn1 (stereo not drawn) [A30]
29 | 0.5 to 1000 | – | CCOC(c1ccccc1)c1cc(-c2c[nH]c3ncc(-c4cnn(C)c4)cc23)n[nH]1 (stereo not drawn) [A90]
30 | 0.5 to 1000 | – | Cn1cc(-c2cnc3[nH]cc(-c4cc(C(C)(O)c5ccnnc5)on4)c3c2)cn1 (stereo not drawn) [A98, 1-{3-[5-(1-methyl-1H-pyrazol-4-yl)-1H-pyrrolo[2,3-b]pyridin-3-yl]isoxazol-5-yl}-1-pyridazin-4-ylethanol]
31 | 0.5 to 1000 | – | Cn1cc(-c2cnc3[nH]cc(-c4cc(C(O)(c5ccccc5)C5CCOCC5)[nH]n4)c3c2)cn1 (stereo not drawn) [A101, {5-[5-(1-methyl-1H-pyrazol-4-yl)-1H-pyrrolo[2,3-b]pyridin-3-yl]-2H-pyrazol-3-yl}phenyl(tetrahydropyran-4-yl)methanol]
32 | 0.5 to 1000 | – | Cn1cc(-c2cnc3[nH]cc(-c4cc(C(O)(c5ccccc5)C5CCOCC5)no4)c3c2)cn1 (stereo not drawn) [A102]
33 | 0.5 to 1000 | – | Cn1cc(-c2cnc3[nH]cc(-c4cc(C(O)(c5ccccc5)C5CCOCC5)on4)c3c2)cn1 (stereo not drawn) [A103]
34 | 0.5 to 1000 | – | CCN(CC)Cc1cc(-c2c[nH]c3ncc(-c4cnn(C)c4)cc23)no1 [A104]
35 | 0.5 to 1000 | – | Cn1cc(-c2cnc3[nH]cc(-c4nnc([C@H](N)c5ccccc5)o4)c3c2)cn1 [A108, C—((R)—C-{5-[5-(1-methyl-1H-pyrazol-4-yl)-1H-pyrrolo[2,3-b]pyridin-3-yl]-1,3,4-oxadiazol-2-yl}-C-phenyl)methylamine]
36 | 0.5 to 1000 | – | Cn1cc(-c2cnc3[nH]cc(-c4nnc([C@@H](N)c5ccccc5)o4)c3c2)cn1 [A109, C—((S)—C-{5-[5-(1-methyl-1H-pyrazol-4-yl)-1H-pyrrolo[2,3-b]-pyridin-3-yl]-1,3,4-oxadiazol-2-yl}-C-phenyl)methylamine]
37 | 0.5 to 1000 | – | Cn1cc(-c2cnc3[nH]cc(-c4nnc(C5(c6ccnc(O)c6)CC5)o4)c3c2)cn1 [A111]
